Source: publication PMC4645160, “Targeting kinases with anilinopyrimidines: discovery of N-phenyl-N’-[4-(pyrimidin-4-ylamino)phenyl]urea derivatives as selective inhibitors of class III receptor tyrosine kinase subfamily” (Scientific Reports, 2015)
Several values for one entry are separate records, joined by “and”; a condition that tells them apart may be missing. Equal entries are not always repeated.

Assays:
[1] = test system: Lewis Lung Carcinoma (LLC); assay: In vivo anticancer activity toward Lewis Lung Carcinoma (LLC); conditions: LLC in C57BL mice, 27 at 7.5 mg/kg, CDDP at 1.5 mg/kg
Source text: (§1) Besides, it was as cytotoxic as 19 towards cancer cells while showing a more favorable selectivity index. On these basis, compound 27 was chosen for in vivo experiments against a syngeneic murine solid tumor model, the murine Lewis Lung Carcinoma (LLC). The tumor growth inhibition induced by 27 was compared with that promoted by cisplatin (CDDP), the most common chemotherapeutic drug used in the treatment of lung cancers. Nine days after tumor inoculation, tumor-bearing mice were randomized into vehicle control and treatment groups (8 mice per group). Control mice received the vehicle (0.2%v/v EtOH and 99.8%v/v of a saline solution), whereas treated groups received daily doses of 27 (7.5 mg · kg^−1 in the vehicle solution composed of 0.2%v/v EtOH and 99.8%v/v of saline solution) or CDDP (1.5 mg · kg^−1 in saline solution). Tumor growth was estimated at day 20 (Fig. 7a). As an indication of the adverse side effects, changes in the body weights of tumor-bearing mice were monitored at day 1 and daily from day 9.
Figure 7 In vivo testing of compound 27. Lewis lung carcinoma (LLC) was implanted i.m. (2 · 10^6 cells inoculum) into the right hind leg of 8-week old imbred C57BL mice. Nine days after tumor inoculation (palpable tumor), tumor-bearing mice were randomized into vehicle control and treatment groups (8 mice per group). Compound 27 was dosed daily at 7.5 mg/kg ip and CDDP was dosed daily at 1.5 mg/kg ip. At day 20, animals were sacrificed (i.e., before tumor can cause the animal discomfort), the legs were amputated at the proximal end of the femur, and the inhibition of tumor growth was determined according to the difference in weight of the tumor-bearing leg and the healthy leg of the animals expressed as % referred to the control animals. Control was constituted by vehicle (0.2%v/v EtOH and 99.8%v/v of saline solution). CDDP was used as positive reference. Both 27 and CDDP were administered at the highest not toxic doses (7.5 and 1.5 mg/kg, respectively), as determined by MTD studies. (a) Average tumor weight (g) after 20 days of treatment with control or compounds. (b) Percentage of reduction in tumor growth after 20 days of treatment with respect to control mice. (c) Body weight changes. The body weight changes of LLC bearing C57BL mice treated with vehicle or tested compounds. Each drug was administered daily after 9 days from the tumor cell inoculum. Weights were measured at day 1 and daily from day 9. Error bars indicate the standard deviation.
All studies involving animal testing were carried out in accordance with the ethical guidelines for animal research adopted by the University of Padua, acknowledging the Italian regulation (D.L.G.S. 116/92) and European Directive 86/609/EEC as to the animal welfare and protection and the related codes of practice. […]

[2] = Body weight changes of LLC bearing mice; assay type: in vivo; conditions: mouse, in vivo, ip, 1.5 mg/kg
Source text: as §1, with “Control mice received the vehicle (0.2%v/v EtOH and 99.8%v/v of a saline solution), whereas treated groups received daily doses of 27 (7.5 mg · kg^−1 in the vehicle solution composed of 0.2%v/v EtOH and 99.8%v/v of saline solution) or CDDP (1.5 mg · kg^−1 in saline solution). Tumor growth was estimated at day 20 (Fig. 7a).” left out
Figure 7 In vivo testing of compound 27. […] At day 20, animals were sacrificed (i.e., before tumor can cause the animal discomfort), the legs were amputated at the proximal end of the femur, and the inhibition of tumor growth was determined according to the difference in weight of the tumor-bearing leg and the healthy leg of the animals expressed as % referred to the control animals. […] Both 27 and CDDP were administered at the highest not toxic doses (7.5 and 1.5 mg/kg, respectively), as determined by MTD studies. […] Weights were measured at day 1 and daily from day 9. […]

[3] = MTD studies (highest not toxic dose); assay type: in vivo; conditions: daily ip
A549 cells = assay: MTT cytotoxicity assay, A549 lung cancer cells; assay type: cell-based, human
Experimental: (§2) Compounds active against at least one kinase among EGFR and class III RTKs were evaluated for their cytotoxic properties against two different human cancer cell lines, namely non small cells A549 lung cancer cells (sensitive to EGFR inhibitors)[46] and pancreatic BxPC3 adenocarcinoma (sensitive to both PDGFRβ and EGFR inhibitors)[47][48] cells. […] The results, expressed as IC50 values (μM) calculated from the dose-survival curves obtained after 72 h of drug treatment from the MTT test, are reported in Table 1.
(§3) All compounds, except derivative 27, were dissolved in DMSO just before the experiment, and a calculated amount of drug solution was added to the cell growth medium to a final solvent concentration of 0.5%, which had no discernible effect on cell killing. Compound 27 was dissolved in a 0.9% NaCl solution just before the experiment.
(§4) Human lung (A549), breast (MCF-7), pancreas (BxPC3), and colon (LoVo) carcinoma cell lines along with melanoma (A375) were obtained from American Type Culture Collection (ATCC, Rockville, MD). Human non-tumor embryonic kidney HEK293 cells were obtained from European Collection of Cell Cultures (ECACC, Salisbury, UK). Human cervical carcinoma A431cells were kindly provided by Prof. F. Zunino (Division of Experimental Oncology B, Istituto Nazionale dei Tumori, Milan, Italy). Human ovarian cancer 2008 cells were kindly provided by Prof. G. Marverti (Dept. of Biomedical Science of Modena University, Italy). Cell lines were maintained in the logarithmic phase at 37 °C in a 5% carbon dioxide atmosphere using the following culture media containing 10% fetal calf serum (Euroclone, Milan, Italy), antibiotics (50 units ∙ mL^−1 penicillin and 50 μg ∙ mL^−1 streptomycin) and 2 mM l-glutamine: i) RPMI-1640 medium (Euroclone) for MCF-7, A431, BxPC3 and 2008 cells; ii) F-12 HAM’S (Sigma Chemical Co.) for A549 and LoVo cells; iii) D-MEM medium (Euroclone) for HEK293 cells.
(§5) The growth inhibitory effect towards human cell lines was evaluated by means of MTT (tetrazolium salt reduction) assay. Briefly, 3–8 ∙ 10^3 cells/well, dependent upon the growth characteristics of the cell line, were seeded in 96-well microplates in growth medium (100 μL) and then incubated at 37 °C in a 5% carbon dioxide atmosphere. After 24 h, the medium was removed and replaced with a fresh one containing the test compound at the appropriate concentration. Triplicate cultures were established for each treatment. After 72 h, each well was treated with 10 μL of a 5 mg ∙ mL-1 MTT (3-(4,5-dimethylthiazol-2-yl)-2,5-diphenyltetrazolium bromide) saline solution, and after 5 h additional incubation, 100 μL of a sodium dodecylsulfate (SDS) solution in HCl 0.01 M were added. After overnight incubation, the inhibition of cell growth induced by the tested complexes was detected by measuring the absorbance of each well at 570 nm using a Bio-Rad 680 microplate reader (Bio-Rad, Hercules, CA). Mean absorbance for each drug dose was expressed as a percentage of the control untreated well absorbance and plotted vs drug concentration.

BxPC3 cells = assay: MTT cytotoxicity assay, BxPC3 pancreatic adenocarcinoma cells; assay type: cell-based, human
Experimental: as §2, §3, §4, §5

HEK293 cells = assay: MTT cytotoxicity assay, non-tumor HEK293 cells; assay type: cell-based, human
Experimental: F. Zunino (Division of Experimental Oncology B, Istituto Nazionale dei Tumori, Milan, Italy).
The growth inhibitory effect towards human cell lines was evaluated by means of MTT (tetrazolium salt reduction) assay. […] Triplicate cultures were established for each treatment.

panel of 48 kinases = assay: KinomeScan primary screening (POC) at 10 μM; assay type: binding, human; conditions: POC values
Source text: Synthesized compounds were screened against a panel of 48 kinases selected within the ScanEDGE subset of DiscoverX (http://www.discoverx.com/services/drug-discovery-development-services/kinase-profiling/kinomescan/scanedge). The ScanEDGE includes 97 kinases and is an economical approach to assess compounds selectivity throughout the human kinome. All the wt-TKs along with some relevant mutants of Abl1 (T315I) and of EGFR (L858R and L858R/T790M) were chosen. The remaining 18 targets (3 Tyrosine Kinases-Like, TKLs; 15 Serine-Threonine Kinases, STKs) were selected among the remaining kinases in the ScanEDGE subset on the basis of their well established role in cancer (see Fig. S2 for a graphical representation of the selected kinases with reference to the kinome tree. Some references highlighting the role of each kinase in cancer are also reported in Table S3).
The compounds were evaluated using the KinomeScan™ platform (http://www.discoverx.com/services/drug-discovery-development-services/kinase-profiling/kinomescan), that measures the ability of the test compound to disrupt the complex between a high affinity ATP-mimic probe immobilized on a solid support and the kinase of interest. The KinomeScan is a very helpful technology for the fast and reliable screening of a number of compounds against a wide and customizable panel of kinases. Besides, it is not based on the use of hazardous radioactive ^32P-ATP and has a very low rate of false positive (<1%)[44]. The screening platform outputs a “Percent of Control” (POC) value, statistically correlated to the dissociation constant (Kd) value (http://www.discoverx.com/tools-resources/leadhunter-study-reports-data-analysis), for each pair of kinase/ligand. The POC is calculated as reported in equation (1):
Where: test compound signal = amount of kinase still binding the probe after treatment with test compound; negative control signal = amount of kinase still binding the probe after treatment with DMSO (100% control); positive control signal = amount of kinase still binding the probe after treatment with control compound (0% control).
(§6) The compounds were tested at high concentration (10 μM), in order to highlight not only the main target but also the off-targets. The results of the preliminary screening are reported as heat map (Fig. 4; see also Table S4 for all the measured values), in which the compounds are grouped on the basis of the 6 or 5 substituent at the pyrimidine ring.

EGFR = target: T1, EGFR (Homo sapiens, UniProt P00533); assay: KinomeScan primary screening (POC) at 10 μM, EGFR; assay type: binding; conditions: POC values
T1 construct: purchased DiscoverX (KinomeScan, ScanEDGE subset)
T1 sequence (P00533 25-1210): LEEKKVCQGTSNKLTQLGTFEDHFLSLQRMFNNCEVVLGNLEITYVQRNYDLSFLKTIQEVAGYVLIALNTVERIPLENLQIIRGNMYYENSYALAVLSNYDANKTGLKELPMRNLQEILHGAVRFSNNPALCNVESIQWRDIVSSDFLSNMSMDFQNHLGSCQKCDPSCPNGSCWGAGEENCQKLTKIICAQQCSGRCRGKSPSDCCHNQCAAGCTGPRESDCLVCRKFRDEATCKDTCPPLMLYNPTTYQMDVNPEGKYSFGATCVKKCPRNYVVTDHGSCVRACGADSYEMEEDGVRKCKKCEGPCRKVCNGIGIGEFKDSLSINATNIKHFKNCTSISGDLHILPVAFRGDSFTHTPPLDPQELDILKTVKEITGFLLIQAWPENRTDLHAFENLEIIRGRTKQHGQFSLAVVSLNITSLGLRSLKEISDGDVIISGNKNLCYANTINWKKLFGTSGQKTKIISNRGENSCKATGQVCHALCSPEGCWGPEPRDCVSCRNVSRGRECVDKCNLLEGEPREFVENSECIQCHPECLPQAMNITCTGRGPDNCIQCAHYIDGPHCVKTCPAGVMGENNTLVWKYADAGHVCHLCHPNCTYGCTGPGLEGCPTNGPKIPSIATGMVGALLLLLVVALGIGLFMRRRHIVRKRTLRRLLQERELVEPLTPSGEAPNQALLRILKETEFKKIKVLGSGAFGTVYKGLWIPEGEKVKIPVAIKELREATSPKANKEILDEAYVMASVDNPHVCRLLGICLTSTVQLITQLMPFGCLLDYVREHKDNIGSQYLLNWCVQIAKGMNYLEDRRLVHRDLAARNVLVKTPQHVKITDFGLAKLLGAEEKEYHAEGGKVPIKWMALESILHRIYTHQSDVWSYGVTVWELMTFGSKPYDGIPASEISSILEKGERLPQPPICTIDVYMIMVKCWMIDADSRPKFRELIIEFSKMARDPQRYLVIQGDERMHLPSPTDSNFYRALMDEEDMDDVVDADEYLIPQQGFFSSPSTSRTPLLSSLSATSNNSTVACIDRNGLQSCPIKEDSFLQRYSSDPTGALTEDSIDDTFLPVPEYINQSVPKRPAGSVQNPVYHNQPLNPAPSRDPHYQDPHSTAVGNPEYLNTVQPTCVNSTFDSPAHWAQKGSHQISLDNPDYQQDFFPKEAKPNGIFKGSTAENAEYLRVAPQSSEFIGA
Experimental: Synthesized compounds were screened against a panel of 48 kinases selected within the ScanEDGE subset of DiscoverX (http://www.discoverx.com/services/drug-discovery-development-services/kinase-profiling/kinomescan/scanedge). The ScanEDGE includes 97 kinases and is an economical approach to assess compounds selectivity throughout the human kinome. All the wt-TKs along with some relevant mutants of Abl1 (T315I) and of EGFR (L858R and L858R/T790M) were chosen. […]
The compounds were evaluated using the KinomeScan™ platform (http://www.discoverx.com/services/drug-discovery-development-services/kinase-profiling/kinomescan), that measures the ability of the test compound to disrupt the complex between a high affinity ATP-mimic probe immobilized on a solid support and the kinase of interest. […] The POC is calculated as reported in equation (1): […]
as §6

| Activity against EGFR in primary screening (EGFR) | Compound | Inhibition of tumor growth (%) ([1]; daily ip from day 9, day 20, versus vehicle control) | Average tumor weight (mean±S.D., g) ([1]; daily ip from day 9, day 20) | Body weight loss (in words) [2] | Highest not toxic dose as determined by MTD studies [3] | IC50 (A549 cells; Homo sapiens, A549, 72 h, MTT test, 72 h of drug treatment, read-out: A549 IC50 (μM) ± SD) | Potency relative to SU (A549) (A549 cells; ratio between IC50 of sunitinib and IC50 of tested compound, A549) | IC50 (BxPC3 cells; Homo sapiens, BXPC-3, MTT test, 72 h of drug treatment, read-out: BxPC3 IC50 (μM) ± SD) | Potency relative to SU (BxPC3) (BxPC3 cells; ratio between IC50 of sunitinib and IC50 of tested compound, BxPC3) | IC50 (HEK293 cells; Homo sapiens, HEK293, MTT test, 72 h, non-tumor cells, read-out: HEK293 IC50 (μM) ± SD) | Selectivity Index (HEK293 cells; IC50 toward non cancerous HEK293 cells divided by the average IC50 for the malignant cells (A549, BxPC3)) | Selectivity profile (kinases targeted) in primary screening (panel of 48 kinases) |
| --- | --- | --- | --- | --- | --- | --- | --- | --- | --- | --- | --- | --- |
|  | [NH2][Pt]([NH2])([Cl])[Cl] [CDDP, cisplatin, reference compound] | 71.63% and 71.6% | 0.139 ± 0.09 g | elevated body weight loss | 1.5 mg/kg |  |  |  |  |  |  |  |
| very poor activity | O=C(Nc1ccccc1)Nc1ccc(Nc2cc(Nc3ccccc3)ncn2)cc1 [Compound 7] |  |  |  |  | 5.13 ± 0.94 µM | 1.21 | 4.6 ± 0.85 µM | 1.10 | 3.14 ± 0.57 µM | 0.64 | class III RTK |
